Square brackets hold non-standard residues; d marks the D form. Side chains are listed from the residue outwards. Peptide text beside a SMILES is read from it. * marks the point of attachment. Phe(3,4-F2) = N[C@@H](Cc1ccc(F)c(F)c1)C(=O)O; Phe(4-Cl) = N[C@@H](Cc1ccc(Cl)cc1)C(=O)O; Phe(4-F) = N[C@@H](Cc1ccc(F)cc1)C(=O)O; 2Nal = N[C@@H](Cc1ccc2ccccc2c1)C(=O)O; d2Nal = N[C@H](Cc1ccc2ccccc2c1)C(=O)O; Tle = CC(C)(C)[C@H](N)C(=O)O; X5 = O=C(c1cc(F)cc(Br)c1)*; dNle = CCCC[C@@H](N)C(=O)O; X3 = N#Cc1ccc(C(=O)*)cc1; Dap = NC[C@H](N)C(=O)O
Target: T1, K-Ras / Raf RBD interaction (Homo sapiens, UniProt P01116, G12V)
T1 construct: The G12V mutant K-Ras (amino acids 1-185) was recombinantly fused; GST (N, cleaved yes); made in house; host or cells: Escherichia coli BL21
Assay: HTRF assay, inhibition of Ras-Raf RBD interaction;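 also: HTRF signal read after overnight incubation of the assay plate at 4 °C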
Assay type: binding
Settings: for increase in Ras binding affinity upon residue substitution: relative to parent 9A5/9A6

SMILES | IC50 | increase in Ras binding affinity upon residue substitution
CCCC[C@H]1NC(=O)[C@H](Cc2ccc(F)cc2)NC(=O)[C@H](CCCNC(=N)N)NC(=O)[C@@H](Cc2ccc3ccccc3c2)NC(=O)[C@H](CCCNC(=N)N)NC(=O)[C@H](CCCNC(=N)N)NC(=O)[C@@H](CCCNC(=N)N)NC(=O)[C@@H](C(C)C)NC(=O)[C@H]([C@@H](C)O)NC(=O)[C@H](Cc2c[nH]c3ccccc23)NC(=O)[C@H](CCC(N)=O)NC1=O [Cyclorasin 9A14, (Trp-Thr-val-arg-Arg-Arg-nal-Arg-Fpa-nle-Gln)] (cyclo(WT[dV][dR]RR[d2Nal]R[Phe(4-F)][dNle]Q)) | 130 ± 70 nM | ~2 fold
CCCC[C@H]1NC(=O)[C@H](Cc2ccc(F)cc2)NC(=O)[C@H](CCCNC(=N)N)NC(=O)[C@@H](Cc2ccc3ccccc3c2)NC(=O)[C@H](CCCNC(=N)N)NC(=O)[C@H](CCCNC(=N)N)NC(=O)[C@H](CCCNC(=N)N)NC(=O)[C@@H](CC(C)C)NC(=O)[C@H](C(C)(C)C)NC(=O)[C@H](Cc2c[nH]c3ccccc23)NC(=O)[C@H](CCC(N)=O)NC1=O [Cyclorasin 9A41, (Trp-Tle-leu-Arg-Arg-Arg-nal-Arg-Fpa-nle-Gln)] (cyclo(W[Tle][dL]RRR[d2Nal]R[Phe(4-F)][dNle]Q)) | 2000 ± 900 nM | 
CCCC[C@H]1NC(=O)[C@H](Cc2ccc(F)cc2)NC(=O)[C@H](CCCNC(=N)N)NC(=O)[C@@H](Cc2ccc3ccccc3c2)NC(=O)[C@H](CCCNC(=N)N)NC(=O)[C@H](CCCNC(=N)N)NC(=O)[C@H](CCCNC(=N)N)NC(=O)[C@@H](C)NC(=O)[C@H]([C@@H](C)O)NC(=O)[C@H](Cc2ccc3ccccc3c2)NC(=O)[C@H](CCC(N)=O)NC1=O [Cyclorasin 9A49, (Nal-Thr-ala-Arg-Arg-Arg-nal-Arg-Fpa-nle-Gln)] (cyclo([2Nal]T[dA]RRR[d2Nal]R[Phe(4-F)][dNle]Q)) | 100 ± 10 nM | 
CCCC[C@H]1NC(=O)[C@H](Cc2ccc(F)cc2)NC(=O)[C@H](CCCNC(=N)N)NC(=O)[C@@H](Cc2ccc3ccccc3c2)NC(=O)[C@H](CCCNC(=N)N)NC(=O)[C@H](CCCNC(=N)N)NC(=O)[C@H](CCCNC(=N)N)NC(=O)[C@@H](C(C)C)NC(=O)[C@H]([C@@H](C)O)NC(=O)[C@H](Cc2c[nH]c3ccccc23)NC(=O)[C@H](CCC(N)=O)NC1=O [Cyclorasin 9A47, (Trp-Thr-val-Arg-Arg-Arg-nal-Arg-Fpa-nle-Gln)] (cyclo(WT[dV]RRR[d2Nal]R[Phe(4-F)][dNle]Q)) | 86 ± 11 nM | 
CC(C)C[C@H]1NC(=O)[C@H](Cc2ccc(F)cc2)NC(=O)[C@H](CCCNC(=N)N)NC(=O)[C@@H](Cc2ccc3ccccc3c2)NC(=O)[C@H](CCCNC(=N)N)NC(=O)[C@H](CCCNC(=N)N)NC(=O)[C@@H](CCCNC(=N)N)NC(=O)[C@@H](C)NC(=O)[C@H]([C@@H](C)O)NC(=O)[C@H](Cc2c[nH]c3ccccc23)NC(=O)[C@H](CCC(N)=O)NC1=O [Cyclorasin 9A10, (Trp-Thr-ala-arg-Arg-Arg-nal-Arg-Fpa-leu-Gln)] (cyclo(WT[dA][dR]RR[d2Nal]R[Phe(4-F)][dL]Q)) | 240 ± 130 nM | 
CCCC[C@H]1NC(=O)[C@H](Cc2ccc(F)cc2)NC(=O)[C@H](CCCNC(=N)N)NC(=O)[C@H](Cc2ccc3ccccc3c2)NC(=O)[C@H](CCCNC(=N)N)NC(=O)[C@H](CCCNC(=N)N)NC(=O)[C@H](CCCNC(=N)N)NC(=O)[C@@H](C)NC(=O)[C@H]([C@@H](C)O)NC(=O)[C@H](Cc2c[nH]c3ccccc23)NC(=O)[C@H](CCC(N)=O)NC1=O [Cyclorasin 9A55, (Trp-Thr-ala-Arg-Arg-Arg-Nal-Arg-Fpa-nle-Gln)] (cyclo(WT[dA]RRR[2Nal]R[Phe(4-F)][dNle]Q)) | 940 ± 280 nM | 
CCCC[C@H]1NC(=O)[C@H](CNC(=O)c2ccc(C#N)cc2)NC(=O)[C@H](CCCNC(=N)N)NC(=O)[C@@H](Cc2ccc3ccccc3c2)NC(=O)[C@H](CCCNC(=N)N)NC(=O)[C@H](CCCNC(=N)N)NC(=O)[C@H](CCCNC(=N)N)NC(=O)[C@@H](C)NC(=O)[C@H](C(C)(C)C)NC(=O)[C@H](Cc2c[nH]c3ccccc23)NC(=O)[C@H](CCC(N)=O)NC1=O [Cyclorasin 9A44c, (Trp-Tle-ala-Arg-Arg-Arg-nal-Arg-Dap(4-cyanobenzoyl)-nle-Gln)] (cyclo(W[Tle][dA]RRR[d2Nal]R[Dap](X3)[dNle]Q)) | 150 ± 50 nM | 
CCCC[C@H]1NC(=O)[C@H](Cc2ccc(F)c(F)c2)NC(=O)[C@H](CCCNC(=N)N)NC(=O)[C@@H](Cc2ccc3ccccc3c2)NC(=O)[C@H](CCCNC(=N)N)NC(=O)[C@H](CCCNC(=N)N)NC(=O)[C@H](CCCNC(=N)N)NC(=O)[C@@H](C(C)C)NC(=O)[C@H](C(C)(C)C)NC(=O)[C@H](Cc2c[nH]c3ccccc23)NC(=O)[C@H](CCC(N)=O)NC1=O [Cyclorasin 9A54, (Trp-Tle-val-Arg-Arg-Arg-nal-Arg-Phe(3,4-difluoro)-nle-Gln)] (cyclo(W[Tle][dV]RRR[d2Nal]R[Phe(3,4-F2)][dNle]Q)) | 18 nM | 
CCCC[C@H]1NC(=O)[C@H](Cc2ccc(F)cc2)NC(=O)[C@H](CCCNC(=N)N)NC(=O)[C@@H](Cc2ccc3ccccc3c2)NC(=O)[C@H](CCCNC(=N)N)NC(=O)[C@H](CCCNC(=N)N)NC(=O)[C@H](CCC(=O)N[C@@H](CCCCN)C(N)=O)NC(=O)[C@@H](C)NC(=O)[C@H]([C@@H](C)O)NC(=O)[C@H](Cc2c[nH]c3ccccc23)NC(=O)[C@@H](C)NC1=O [Cyclorasin 9A(ser7dA), (Arg-Arg-nal-Arg-Fpa-nle-ala-Trp-Thr-ala-Gln)-Lys] (cyclo(RR[d2Nal]R[Phe(4-F)][dNle][dA]WT[dA]E([Lys-NH2]))) | 770 ± 490 nM | 
CCCC[C@H]1NC(=O)[C@H](Cc2ccc(F)cc2)NC(=O)[C@H](CCCNC(=N)N)NC(=O)[C@@H](Cc2ccc3ccccc3c2)NC(=O)[C@H](CCCNC(=N)N)NC(=O)[C@H](CCCNC(=N)N)NC(=O)[C@H](CCC(=O)N[C@@H](CCCCN)C(N)=O)NC(=O)[C@@H](C)NC(=O)[C@H]([C@@H](C)O)NC(=O)[C@H](C)NC(=O)[C@@H](CO)NC1=O [Cyclorasin 9A(Trp8A), (Arg-Arg-nal-Arg-Fpa-nle-ser-Ala-Thr-ala-Gln)-Lys] (cyclo(RR[d2Nal]R[Phe(4-F)][dNle][dS]AT[dA]E([Lys-NH2]))) | 7200 ± 1000 nM | 
CC(C)[C@H]1NC(=O)[C@H](Cc2ccc(F)cc2)NC(=O)[C@H](CCCNC(=N)N)NC(=O)[C@@H](Cc2ccc3ccccc3c2)NC(=O)[C@H](CCCNC(=N)N)NC(=O)[C@H](CCCNC(=N)N)NC(=O)[C@@H](CCCNC(=N)N)NC(=O)[C@@H](C)NC(=O)[C@H]([C@@H](C)O)NC(=O)[C@H](Cc2c[nH]c3ccccc23)NC(=O)[C@H](CCC(N)=O)NC1=O [Cyclorasin 9A11, (Trp-Thr-ala-arg-Arg-Arg-nal-Arg-Fpa-val-Gln)] (cyclo(WT[dA][dR]RR[d2Nal]R[Phe(4-F)][dV]Q)) | 310 ± 80 nM | 
CCCC[C@H]1NC(=O)[C@H](CNC(=O)c2cc(F)cc(Br)c2)NC(=O)[C@H](CCCNC(=N)N)NC(=O)[C@@H](Cc2ccc3ccccc3c2)NC(=O)[C@H](CCCNC(=N)N)NC(=O)[C@H](CCCNC(=N)N)NC(=O)[C@H](CCCNC(=N)N)NC(=O)[C@@H](C)NC(=O)[C@H]([C@@H](C)O)NC(=O)[C@H](Cc2c[nH]c3ccccc23)NC(=O)[C@H](CCC(N)=O)NC1=O [Cyclorasin 9A44a, (Trp-Thr-ala-Arg-Arg-Arg-nal-Arg-Dap(3-bromo-5-fluorobenzoyl)-nle-Gln)] (cyclo(WT[dA]RRR[d2Nal]R[Dap](X5)[dNle]Q)) | 83 ± 8 nM | 
CCCC[C@H]1NC(=O)[C@H](Cc2ccc(F)c(F)c2)NC(=O)[C@H](CCCNC(=N)N)NC(=O)[C@@H](Cc2ccc3ccccc3c2)NC(=O)[C@H](CCCNC(=N)N)NC(=O)[C@H](CCCNC(=N)N)NC(=O)[C@H](CCCNC(=N)N)NC(=O)[C@@H](C)NC(=O)[C@H]([C@@H](C)O)NC(=O)[C@H](Cc2c[nH]c3ccccc23)NC(=O)[C@H](CCC(N)=O)NC1=O [Cyclorasin 9A43, (Trp-Thr-ala-Arg-Arg-Arg-nal-Arg-Phe(3,4-difluoro)-nle-Gln)] (cyclo(WT[dA]RRR[d2Nal]R[Phe(3,4-F2)][dNle]Q)) | 64 nM | 2 fold
CCCC[C@H]1NC(=O)[C@H](Cc2ccc(F)cc2)NC(=O)[C@H](CCCNC(=N)N)NC(=O)[C@@H](Cc2ccc3ccccc3c2)NC(=O)[C@H](CCCNC(=N)N)NC(=O)[C@H](C)NC(=O)[C@H](CCC(=O)N[C@@H](CCCCN)C(N)=O)NC(=O)[C@@H](C)NC(=O)[C@H]([C@@H](C)O)NC(=O)[C@H](Cc2c[nH]c3ccccc23)NC(=O)[C@@H](CO)NC1=O [Cyclorasin 9A(Arg1A), (Ala-Arg-nal-Arg-Fpa-nle-ser-Trp-Thr-ala-Gln)-Lys] (cyclo(AR[d2Nal]R[Phe(4-F)][dNle][dS]WT[dA]E([Lys-NH2]))) | 1300 ± 200 nM | 
CCCC[C@H]1NC(=O)[C@H](Cc2ccc(Cl)cc2)NC(=O)[C@H](CCCNC(=N)N)NC(=O)[C@@H](Cc2ccc3ccccc3c2)NC(=O)[C@H](CCCNC(=N)N)NC(=O)[C@H](CCCNC(=N)N)NC(=O)[C@H](CCCNC(=N)N)NC(=O)[C@@H](C)NC(=O)[C@H]([C@@H](C)O)NC(=O)[C@H](Cc2c[nH]c3ccccc23)NC(=O)[C@H](CCC(N)=O)NC1=O [Cyclorasin 9A42, (Trp-Thr-ala-Arg-Arg-Arg-nal-Arg-Phe(4-chloro)-nle-Gln)] (cyclo(WT[dA]RRR[d2Nal]R[Phe(4-Cl)][dNle]Q)) | 130 ± 20 nM | 
C[C@H]1NC(=O)[C@H](Cc2ccc(F)cc2)NC(=O)[C@H](CCCNC(=N)N)NC(=O)[C@@H](Cc2ccc3ccccc3c2)NC(=O)[C@H](CCCNC(=N)N)NC(=O)[C@H](CCCNC(=N)N)NC(=O)[C@H](CCC(=O)N[C@@H](CCCCN)C(N)=O)NC(=O)[C@@H](C)NC(=O)[C@H]([C@@H](C)O)NC(=O)[C@H](Cc2c[nH]c3ccccc23)NC(=O)[C@@H](CO)NC1=O [Cyclorasin 9A(nle6dA), (Arg-Arg-nal-Arg-Fpa-ala-ser-Trp-Thr-ala-Gln)-Lys] (cyclo(RR[d2Nal]R[Phe(4-F)][dA][dS]WT[dA]E([Lys-NH2]))) | 7700 ± 5600 nM | 
CCCC[C@H]1NC(=O)[C@H](Cc2ccc(F)cc2)NC(=O)[C@H](CCCNC(=N)N)NC(=O)[C@@H](Cc2ccc3ccccc3c2)NC(=O)[C@H](C)NC(=O)[C@H](CCCNC(=N)N)NC(=O)[C@H](CCC(=O)N[C@@H](CCCCN)C(N)=O)NC(=O)[C@@H](C)NC(=O)[C@H]([C@@H](C)O)NC(=O)[C@H](Cc2c[nH]c3ccccc23)NC(=O)[C@@H](CO)NC1=O [Cyclorasin 9A(Arg2A), (Arg-Ala-nal-Arg-Fpa-nle-ser-Trp-Thr-ala-Gln)-Lys] (cyclo(RA[d2Nal]R[Phe(4-F)][dNle][dS]WT[dA]E([Lys-NH2]))) | 940 ± 290 nM | 
